In patent US11311513B2, “Methods, agents, and compositions for the treatment of acute myeloid leukemia” (UNIVERSITY OF CINCINNATI, priority 2017, dated 2022):

What was measured:
[1] = Acute and long-term toxicity profiling in healthy mice; type: in vivo, C57BL/6 mice; conditions: for acute (24 hrs) or long-term (200 days) toxicity: 2.5 mg/kg i.p. once per day 10 days, body, spleen, liver weights, WBC, PB and BM lineages; for WBC: 2.5 mg/kg i.p. 10 days, normal range 1.8-10.7; for BA / EO: normal range 0.0-0.2; for MO: normal range 0.0-0.4; for NE: normal range 0.1-2.4; for LY: normal range 0.9-9.3; for RBC: normal range 6.36-9.42; for PLT: normal range 592-2972
Description: FIG. 15. […] 24 hrs after the last administration, body weights (a), weights of spleens (b), livers (c), total PB WBC counts (d), BM Mac1^+Gr1^+ (e), Mac1^+Gr1^− (f), Mac1^−Gr1^+ (g), and c-Kit^+ (h) populations were analyzed.
FIG. 16. […] 200 days after the last administration, body weights (a), weights of spleens (b), livers (c), total PB WBC counts (d), BM Mac1^+Gr1^+ (e), Mac1^+Gr1^− (f), Mac1^−Gr1^+ (g), and c-Kit^+ (h) populations were analyzed.

MLL-AF9-induced AML = assay: MLL-AF9 AML secondary BMT mouse model; type: in vivo, mice; conditions: for mice cured / median survival: 2.5 mg/kg i.p. once per day for 10 days; for median survival: control 49 days
Description: FIG. 2. […] The secondary BMT recipient mice were transplanted with leukemic BM blast cells collected from primary MLL-AF9 AML mice. […] Kaplan-Meier curves are shown. The P values were determined by log-rank test. (b) Wright-Giemsa staining of mouse peripheral blood (PB) and BM, or hematoxylin and eosin (H&E) staining of mouse spleen and liver of the treated or control leukemic mice. (c,d) Tet1/2/3 gene expression levels (c) or Tet1 protein level (d) in BM blast cells of the treated or control leukemic mice. *, P<0.05, two-tailed t-test. Error bar indicates SD of triplicate experiments. […] The secondary BMT recipient mice were transplanted with leukemic BM blast cells collected from the primary AE9a-AML mice. […] Kaplan-Meier curves are shown. The P values were determined by log-rank test.
Secondary mouse BMT was carried out as described previously. […] For the “5+3” treatment, AraC (Cytarabine, Bedford Laboratories) and DNR (Daunorubicin, Sigma-Aldrich) were reconstituted with PBS, filtered, and stored in aliquots at −20° C. The “5+3” therapy regimen consists of five consecutive daily doses of 50 mg/kg AraC along with 3 mg/kg DNR daily during the first three days of treatment. Drugs were delivered by tail vein and intraperitoneal injection. Weights were taken daily during treatment and doses were recalculated to ensure the mice received a consistent dose of 50 mg/kg AraC and 3 mg/kg DNR every treatment.

[2] = tested on: BM cells of leukemic mice with MLL-AF9 fusion (MA9-AML) or FLT3-ITD/NPM1^mut; assay: MTS and apoptosis assays in BM cells of leukemic mice; type: cell-based; conditions: 50 nM; 3 days
Description: FIG. 14. […] BM cells of leukemic mice with MLL-AF9 fusion (MA9-AML) or FLT3-ITD/NPM1^mut, and c-Kit^+ HSPCs from a pool of 6 healthy donor mice were cultured in liquid medium. […] MTS (a), apoptosis assays (b) and qPCR (c) were conducted 3 days after cell seeding or drug treatments. Error bar indicates SD of triplicate experiments.
These experiments were conducted as described previously (Jiang, X., et al., Blockade of miR-150 Maturation by MLL-Fusion/MYC/LIN-28 Is Required for MLL-Associated Leukemia, Cancer Cell 22:524-35 (2012); Li, Z., et al., miR-196b directly targets both HOXA9/MEIS1 oncogenes and FAS tumour suppressor in MLL-rearranged leukaemia, Nat Commun 2:688 (2012)) with ApoLive-Glo Multiplex Assay Kit, or CellTiter 96 AQueous Non-Radioactive Cell Proliferation Assay Kit (Promega, Madison, Wis.).

[3] = tested on: 5hmC peak enrichment in the whole genome; assay: Genome-wide 5hmC-seq in ML-2 AML cells; type: cell-based, human
Description: FIG. 12. […] 5hmC peak counts at different IDR cutoffs were shown. (b) Read density across 5hmC enriched regions. A unified catalog of 5hmC enriched regions was generated. Shown are heatmaps rank-ordered by reads per kilobase of exon model per million mapped reads (RPKM) of 5hmC-Seal samples minus that of the input samples. (c) Read density across all RefSeq genes. Shown are heatmaps of 5hmC read density changes across all RefSeq gene loci and 5 kb flanking regions (minus input values).
100 ng genomic DNA extracted from ML-2 cell were fragmented in 50 jiL Tagmentation buffer at 55° C. Fragmented DNA was purified by Zymo DNA clean&concentrator Kit (Zymo Research, Tustin, Calif.). Then, the selective 5hmC chemical labeling was performed in 25 jiL glucosylation buffer (50 mM HEPES buffer pH 8.0, 25 mM MgCl2) containing above fragmented DNA, 100 μM N3-UDP-Glc, 1 μM β-GT, and incubated at 37° C. for 2 hr. […] The libraries were quantified by a Qubit fluorometer (Life Technologies) and sequenced on an Illumina HiSEQ4000 sequencer with paired-end 50-bp reads.
The gene network was analyzed with Ingenuity Pathway Analysis (Qiagen). […] For 5hmC sequencing analysis, illumina sequencing reads were mapped to UCSC hg19 human reference genome using bowtie program. Only uniquely mapped reads were retained for the following data analysis. […]

[4] = acute, 24 hrs post last administration
[5] = long-term, 200 days post last administration

## COc1cc(C(c2cc3c(cc2O)OCO3)N2CCCC2)cc(OC)c1OC (stereo not drawn) [NSC-370284, 6-(1-Pyrrolidinyl(3,4,5-trimethoxyphenyl)methyl)-1,3-benzodioxol-5-ol]
[1]
  acute (24 hrs) or long-term (200 days) toxicity: no evidence of either acute or long-term toxicity
[1]; [4]
  WBC: 8.35 ± 2.34 K/μl
  BA: 0.05 ± 0.05 K/μl
  MO: 0.22 ± 0.14 K/μl
  NE: 1.67 ± 0.21 K/μl
  LY: 6.74 ± 2.55 K/μl
  RBC: 8.55 ± 3.34 M/μl
  PLT: 460.21 ± 42.42 K/μl
[1]; [5]
  WBC: 10.34 ± 2.19 K/μl
  BA: 0.03 ± 0.02 K/μl
  EO: 0.11 ± 0.01 K/μl
  MO: 0.31 ± 0.03 K/μl
  NE: 2.26 ± 0.54 K/μl
  LY: 7.68 ± 1.55 K/μl
  RBC: 7.38 ± 1.7 M/μl
  PLT: 929.62 ± 154.61 K/μl
MLL-AF9-induced AML
  mice cured: 57%
  median survival: > 200 days
[2]
  viability of AML cells: dramatically suppressed
[3]
  reduction of 5hmC peak enrichment in the whole genome: around 75%

## CC(C)(C)c1cc(C(c2cc3c(cc2O)OCO3)N2CCOCC2)cc(C(C)(C)C)c1O (stereo not drawn) [UC-514321, 6-{[4-Hydroxy-3,5-bis(2-methyl-2-propanyl)phenyl](4-morpholinyl)methyl}-1,3-benzodioxol-5-ol]
[1]
  acute (24 hrs) or long-term (200 days) toxicity: no evidence of either acute or long-term toxicity
[1]; [4]
  WBC: 8.64 ± 3.68 K/μl
  BA: 0.07 ± 0.05 K/μl
  EO: 0.14 ± 0.12 K/μl
  MO: 0.27 ± 0.1 K/μl
  NE: 1.94 ± 0.56 K/μl
  LY: 6.54 ± 2.7 K/μl
  RBC: 9.54 ± 0.74 M/μl
  PLT: 559.43 ± 116.9 K/μl
[1]; [5]
  WBC: 11.89 ± 1.64 K/μl
  BA: 0.07 ± 0.04 K/μl
  EO: 0.1 ± 0.01 K/μl
  MO: 0.25 ± 0.05 K/μl
  NE: 2.11 ± 0.44 K/μl
  LY: 8.55 ± 1.18 K/μl
  RBC: 7.07 ± 0.42 M/μl
  PLT: 681.56 ± 402.64 K/μl
MLL-AF9-induced AML
  mice cured: 66.7%
  median survival: > 200 days
MLL-AF9-induced AML; versus control, 2.5 mg/kg i.p. 10 days
  prolongation of median survival: over 3 folds
[2]
  viability of AML cells: dramatically suppressed
[3]
  reduction of 5hmC peak enrichment in the whole genome: around 75%
